According to PubChem BioAssay (NCI):
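A five-concentration, 48-hour dose response in 96-well plates underlies each endpoint, interpolated linearly between surrounding concentrations. TGI denotes the concentration required for complete inhibition of growth.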

Columns and labels:
Experiment in all cases: NCI anticancer screen, dose series, 48 h
ACHN renal = system: ACHN renal
HT29 colon = system: HT29 colon
EKVX NSCLC = system: EKVX NSCLC
OVCAR-3 ovarian = system: OVCAR-3 ovarian
SNB-19 CNS = system: SNB-19 CNS
LOX IMVI melanoma = system: LOX IMVI melanoma
OVCAR-5 ovarian = system: OVCAR-5 ovarian
MDA-MB-435 = system: MDA-MB-435
DU-145 prostate = system: DU-145 prostate
CAKI-1 renal = system: CAKI-1 renal
OVCAR-8 ovarian = system: OVCAR-8 ovarian
CCRF-CEM leukemia = system: CCRF-CEM leukemia
SF-268 CNS = system: SF-268 CNS
UO-31 renal = system: UO-31 renal
NCI-H460 lung = system: NCI-H460 lung
SK-MEL-5 melanoma = system: SK-MEL-5 melanoma
K-562 leukemia = system: K-562 leukemia
COLO 205 colon = system: COLO 205 colon
MALME-3M melanoma = system: MALME-3M melanoma
SK-MEL-28 melanoma = system: SK-MEL-28 melanoma
TK-10 renal = system: TK-10 renal
KM12 colon = system: KM12 colon
SF-295 CNS = system: SF-295 CNS
A549 NSCLC = system: A549 NSCLC
IGROV1 ovarian = system: IGROV1 ovarian
786-0 renal = system: 786-0 renal
RPMI-8226 leukemia = system: RPMI-8226 leukemia
NCI-H226 lung = system: NCI-H226 lung
HS 578T breast = system: HS 578T breast
NCI-H23 lung = system: NCI-H23 lung
M14 melanoma = system: M14 melanoma
UACC-62 melanoma = system: UACC-62 melanoma
PC-3 prostate = system: PC-3 prostate
SNB-75 CNS = system: SNB-75 CNS
UACC-257 melanoma = system: UACC-257 melanoma
HCT-116 colon = system: HCT-116 colon
A498 renal = system: A498 renal
HL-60(TB) leukemia = system: HL-60(TB) leukemia
NCI/ADR-RES ovarian = system: NCI/ADR-RES ovarian
SW-620 colon = system: SW-620 colon
MOLT-4 leukemia = system: MOLT-4 leukemia
MDA-MB-231 breast = system: MDA-MB-231 breast
SK-MEL-2 melanoma = system: SK-MEL-2 melanoma
U251 CNS = system: U251 CNS
HCT-15 colon = system: HCT-15 colon
NCI-H522 lung = system: NCI-H522 lung
HCC-2998 colon = system: HCC-2998 colon
HOP-62 NSCLC = system: HOP-62 NSCLC
MCF7 breast = system: MCF7 breast
OVCAR-4 ovarian = system: OVCAR-4 ovarian
SK-OV-3 ovarian = system: SK-OV-3 ovarian
RXF 393 renal = system: RXF 393 renal
BT-549 breast = system: BT-549 breast
MDA-N = system: MDA-N
HOP-92 NSCLC = system: HOP-92 NSCLC

SMILES: COc1ccc(-c2csc(-n3c(-c4ccccc4)nc4c(Br)cc(Br)cc4c3=O)n2)cc1
- TGI (ACHN renal): > 100 µM
- TGI (HT29 colon): > 100 µM
- TGI (EKVX NSCLC): 35.1 µM
- TGI (OVCAR-3 ovarian): > 100 µM
- TGI (SNB-19 CNS): > 100 µM
- TGI (LOX IMVI melanoma): > 100 µM
- TGI (OVCAR-5 ovarian): > 100 µM
- TGI (MDA-MB-435): 75.4 µM
- TGI (DU-145 prostate): > 100 µM
- TGI (CAKI-1 renal): > 100 µM
- TGI (OVCAR-8 ovarian): > 100 µM
- TGI (CCRF-CEM leukemia): 43.6 µM
- TGI (SF-268 CNS): 67.1 µM
- TGI (UO-31 renal): 68.2 µM
- TGI (NCI-H460 lung): > 100 µM
- TGI (SK-MEL-5 melanoma): 36.9 µM
- TGI (K-562 leukemia): 58.7 µM
- TGI (COLO 205 colon): > 100 µM
- TGI (MALME-3M melanoma): 59.2 µM
- TGI (SK-MEL-28 melanoma): 57.8 µM
- TGI (TK-10 renal): > 100 µM
- TGI (KM12 colon): > 100 µM
- TGI (SF-295 CNS): > 100 µM
- TGI (A549 NSCLC): > 100 µM
- TGI (IGROV1 ovarian): > 100 µM
- TGI (786-0 renal): 54.4 µM
- TGI (RPMI-8226 leukemia): 31 µM
- TGI (NCI-H226 lung): 90.7 µM
- TGI (HS 578T breast): > 100 µM
- TGI (NCI-H23 lung): 69.4 µM
- TGI (M14 melanoma): 96.4 µM
- TGI (UACC-62 melanoma): > 100 µM
- TGI (PC-3 prostate): > 100 µM
- TGI (SNB-75 CNS): > 100 µM
- TGI (UACC-257 melanoma): > 100 µM
- TGI (HCT-116 colon): 77.1 µM
- TGI (A498 renal): 65.9 µM
- TGI (HL-60(TB) leukemia): 49 µM
- TGI (NCI/ADR-RES ovarian): 85.5 µM
- TGI (SW-620 colon): > 100 µM
- TGI (MOLT-4 leukemia): > 100 µM
- TGI (MDA-MB-231 breast): > 100 µM
- TGI (SK-MEL-2 melanoma): > 100 µM
- TGI (U251 CNS): > 100 µM
- TGI (HCT-15 colon): > 100 µM
- TGI (NCI-H522 lung): > 100 µM
- TGI (HCC-2998 colon): > 100 µM
- TGI (HOP-62 NSCLC): > 100 µM
- TGI (MCF7 breast): > 100 µM
- TGI (OVCAR-4 ovarian): > 100 µM
- TGI (SK-OV-3 ovarian): > 100 µM
- TGI (RXF 393 renal): 76.4 µM
- TGI (BT-549 breast): 88.8 µM
- TGI (MDA-N): 67.7 µM
- TGI (HOP-92 NSCLC): 46.7 µM
